In brackets after ≈: the same amount, converted by molar mass. Where a SMILES comes first, the peptide text is derived from it.
Assays:
Assay in all cases: microbe, parasite or virus in culture
K. pneumoniae M6 = assay type: cell-based, Klebsiella pneumoniae; conditions: for MIC: Klebsiella pneumoniae, M6, 20 h, read-out: Modal MIC
Procedure: (§1) Antimicrobial activity was evaluated against a panel of 18 pathogens consisting of eight Gram-negative strains (E. coli NCTC 12923, E. coli LEC001, Pseudomonas aeruginosa PAO1, P. aeruginosa NCTC 13437, Acinetobacter baumannii ATCC 17978, A. baumannii AYE, Klebsiella pneumoniae M6, K. pneumoniae NCTC 13368), four Gram-positive strains (Staphylococcus aureus ATCC 9144, S. aureus NCTC 13616, S. aureus USA300, S. aureus 1199B) and six fungi (Candida auris TDG 1912, C. albicans NCPF 8018, C. krusei NCPF 3876, C. tropicalis NCPF 8760, and C. parapsilosis NCPF 3209). Pathogens were grown in noncation adjusted Mueller Hinton broth (MHB, for bacteria) or Roswell Park Memorial Institute (RPMI 1640) + 2% glucose (for fungi) at 37 °C with 180 rpm shaking and maintained on solid media (tryptic soy agar for bacteria and Sabouraud dextrose agar for fungi). For an antibiogram, see Suppl.
(§2) The 46 peptides were serially diluted (128 to 2 μg/mL) in media down polypropylene 96-well plates. Bacteria or fungi, diluted from an overnight culture to an OD600 of 0.01, were added to the serially diluted peptides at a 1:1 ratio resulting in a starting cell density of ∼5 × 10^5 CFU/mL. Plates were incubated at 37 °C for 20 h, and the optical density was determined spectrophotometrically at 600 nm. Minimum inhibition concentrations (MICs) were determined from a minimum of three biological repeats and are reported in μg/mL as well as μM. […] The MIC50 or MIC90 is defined as the lowest peptide concentration that results in 50% or 90% growth inhibition over a 20 h treatment period, respectively.

K. pneumoniae NCTC 13368 = assay type: cell-based, Klebsiella pneumoniae; conditions: for MIC: Klebsiella pneumoniae, NCTC13368, 20 h, read-out: Modal MIC; for Modal MIC: K. pneumoniae NCTC 13368 (R)
Procedure: as §1, §2

S. aureus (MRSA) 1199B = assay type: cell-based, Staphylococcus aureus; conditions: for MIC: Staphylococcus aureus, MRSA, read-out: Modal MIC; for Modal MIC: S. aureus (MRSA) 1199B (R)
Procedure, shortened: (§3)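 Peptides 128→2 μg/mL, 2-fold series; inoculum ~5 × 10^5 CFU/mL from overnight culture (OD600 0.01, mixed 1:1). MHB non-cation-adjusted for bacteria, RPMI 1640 + 2% glucose for fungi. 37 °C, 20 h, OD600. MIC50/MIC90 at 50%/90% inhibition; n ≥ 3.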

S. aureus (MRSA) USA300 = assay type: cell-based, Staphylococcus aureus; conditions: for MIC: Staphylococcus aureus, read-out: Modal MIC; for Modal MIC: S. aureus (MRSA) USA300 (R)
Procedure, shortened: as §3

[1] = system: S. aureus (MSSA) ATCC 9144; assay type: cell-based, Staphylococcus aureus; conditions: 20 h; for MIC: Staphylococcus aureus, read-out: Modal MIC
Procedure, shortened: as §3

[2] = system: S. aureus (MRSA) NCTC 13616; assay type: cell-based, Staphylococcus aureus; conditions: for MIC: Staphylococcus aureus, read-out: Modal MIC; for Modal MIC: S. aureus (MRSA) NCTC 13616 (R)
Procedure, shortened: as §3

A. baumannii ATCC 17978 = assay type: cell-based, Acinetobacter baumannii; conditions: for MIC: Acinetobacter baumannii, ATCC17978, 20 h, read-out: Modal MIC
Procedure, shortened: as §3

A. baumannii AYE = assay type: cell-based, Acinetobacter baumannii; conditions: for MIC: Acinetobacter baumannii, read-out: Modal MIC; for Modal MIC: A. baumannii AYE (R)
Procedure, shortened: as §3

P. aeruginosa NCTC 13437 = assay type: cell-based, Pseudomonas aeruginosa; conditions: for MIC: Pseudomonas aeruginosa, NCTC13437, 20 h, read-out: Modal MIC; for Modal MIC: P. aeruginosa NCTC 13437 (R)
Procedure: as §1, §2

P. aeruginosa PAO1 = assay type: cell-based, Pseudomonas aeruginosa; conditions: for MIC: Pseudomonas aeruginosa, PAO1, 20 h, read-out: Modal MIC
Procedure: as §1, §2

E. coli NCTC 12923 = assay type: cell-based, Escherichia coli; conditions: for MIC: Escherichia coli, NCTC12923, 20 h, read-out: Modal MIC
Procedure, shortened: as §3

E. coli LEC001 = assay type: cell-based, Escherichia coli; conditions: for MIC: Escherichia coli, LEC001, 20 h, read-out: Modal MIC
Procedure, shortened: as §3

[3] = system: C. parapsilosis NCPF 3209; assay type: cell-based; conditions: NCPF 3209, 20 h
Procedure, shortened: as §3

C. glabrata NCPF 8018 = assay type: cell-based; conditions: NCPF 8018, 20 h
Procedure, shortened: as §3

C. krusei NCPF 3876 = assay type: cell-based; conditions: NCPF 3876, 20 h
Procedure, shortened: as §3

C. albicans NCPF 3281 = assay type: cell-based; conditions: NCPF 3281, 20 h
Procedure, shortened: as §3

C. tropicalis NCPF 8760 = assay type: cell-based; conditions: NCPF 8760, 20 h
Procedure, shortened: as §3

C. auris TDG 1912 = assay type: cell-based, Candida auris; conditions: TDG 1912, 20 h
Procedure, shortened: as §3

[4] = MHB, 37 °C, 20 h, OD600, min. three biological repeats

Row | Compound | MIC (K. pneumoniae M6) [µg/mL] | MIC (K. pneumoniae NCTC 13368) [µg/mL] | MIC (S. aureus (MRSA) 1199B; 20 h) [µg/mL] | MIC (S. aureus (MRSA) USA300; 20 h) [µg/mL] | MIC [1] [µg/mL] | MIC ([2]; 20 h) [µg/mL] | MIC (A. baumannii ATCC 17978) [µg/mL] | MIC (A. baumannii AYE; 20 h) [µg/mL] | MIC (P. aeruginosa NCTC 13437) [µg/mL] | MIC (P. aeruginosa PAO1) [µg/mL] | MIC (E. coli NCTC 12923) [µg/mL] | MIC (E. coli LEC001) [µg/mL] | Modal MIC (K. pneumoniae NCTC 13368; [4]) [µg/mL] | Modal MIC (S. aureus (MRSA) 1199B; [4]) [µg/mL] | Modal MIC (S. aureus (MRSA) USA300; [4]) [µg/mL] | Modal MIC [2, 4] [µg/mL] | Modal MIC (A. baumannii AYE; [4]) [µg/mL] | Modal MIC (P. aeruginosa NCTC 13437; [4]) [µg/mL] | also measured
1 | O=C(O)c1cn(C2CC2)c2cc(N3CCNCC3)c(F)cc2c1=O [Ciprofloxacin, reference compound] | < 0.5 | 0.5 (≈ 1.51 µM) | 8 (≈ 24.1 µM) | 64 (≈ 193 µM) | 1 (≈ 3.02 µM) | 64 (≈ 193 µM) | 0.5 (≈ 1.51 µM) | 128 (≈ 386 µM) | 64 (≈ 193 µM) | 0.5 (≈ 1.51 µM) | ≤ 0.125 | 32 (≈ 96.6 µM) |  |  |  |  |  |  | 
2 | Gentamycin [reference compound] |  |  |  |  |  |  |  |  |  |  |  |  | 4 | 0.25 | 4 | 0.25 | > 512 | 256 | Modal MIC (K. pneumoniae M6; K. pneumoniae M6 (S), MHB, 37 °C, 20 h, OD600, min. three biological repeats): 0.25 µg/mL; Modal MIC ([1]; S. aureus (MSSA) ATCC 9144 (S), MHB, 37 °C, OD600, min. three biological repeats): 0.25 µg/mL; Modal MIC (A. baumannii ATCC 17978; A. baumannii ATCC 17978 (S), MHB, 37 °C, 20 h, OD600, min. three biological repeats): 0.5 µg/mL; Modal MIC (P. aeruginosa PAO1; P. aeruginosa PAO1 (S), MHB, 37 °C, 20 h, OD600, min. three biological repeats): 4 µg/mL; Modal MIC (E. coli NCTC 12923; E. coli NCTC 12923 (S), MHB, ~5×10^5 CFU/mL, 37 °C, 20 h, OD600, min. three biological repeats): 1 µg/mL; Modal MIC (E. coli LEC001; E. coli LEC001 (R), MHB, 37 °C, 20 h, OD600, min. three biological repeats): 4 µg/mL
3 | NC[C@H]1O[C@H](O[C@H]2[C@H](O)[C@@H](O[C@H]3O[C@H](CO)[C@@H](O)[C@H](N)[C@H]3O)[C@H](N)C[C@@H]2N)[C@H](N)C[C@@H]1O [Tobramycin, reference compound] | 8 (≈ 17.1 µM) | 64 (≈ 137 µM) | 0.25 (≈ 0.535 µM) |  | 0.25 to 0.5 (≈ 0.535 to 1.07 µM) | 0.5 (≈ 1.07 µM) | 4 (≈ 8.56 µM) | 64 (≈ 137 µM) | 64 (≈ 137 µM) | 2 (≈ 4.28 µM) | 16 (≈ 34.2 µM) | 8 (≈ 17.1 µM) |  |  |  |  |  |  | 
4 | CC[C@H](C)[C@H](NC(=O)[C@@H](N)CCCCN)C(=O)N[C@@H](C)C(=O)N[C@@H](CCCCN)C(=O)N[C@H](C(=O)N[C@@H](C)C(=O)N[C@@H](CC(C)C)C(=O)N[C@@H](CCCCN)C(=O)N[C@@H](C)C(=O)N[C@@H](CC(C)C)C(N)=O)C(C)C [DRAMP02273a] (H-KIAKVALKAL-NH2) |  |  |  |  |  |  |  |  |  |  |  |  | > 128 | > 128 | > 128 | > 128 | > 128 | > 128 | Modal MIC50 [3]: > 117.5 µM; Modal MIC90 [3]: > 117.5 µM; Modal MIC50 (C. glabrata NCPF 8018): > 117.5 µM; Modal MIC90 (C. glabrata NCPF 8018): > 117.5 µM; Modal MIC50 (C. krusei NCPF 3876): > 117.5 µM; Modal MIC90 (C. krusei NCPF 3876): > 117.5 µM; Modal MIC50 (C. albicans NCPF 3281): > 117.5 µM; Modal MIC90 (C. albicans NCPF 3281): > 117.5 µM; Modal MIC50 (C. tropicalis NCPF 8760): > 117.5 µM; Modal MIC90 (C. tropicalis NCPF 8760): > 117.5 µM; Modal MIC (K. pneumoniae NCTC 13368; shown in µM): > 117.5 µM; Modal MIC (S. aureus (MRSA) 1199B; shown in µM): > 117.5 µM; Modal MIC (S. aureus (MRSA) USA300; shown in µM): > 117.5 µM; Modal MIC ([2]; shown in µM): > 117.5 µM; Modal MIC50 (C. auris TDG 1912): > 117.5 µM; Modal MIC90 (C. auris TDG 1912): > 117.5 µM; Modal MIC (A. baumannii AYE; shown in µM): > 117.5 µM; Modal MIC (P. aeruginosa NCTC 13437; shown in µM): > 117.5 µM
5 | CC(C)(O/N=C(\C(=O)N[C@@H]1C(=O)N2C(C(=O)[O-])=C(C[n+]3ccccc3)CS[C@H]12)c1csc(N)n1)C(=O)O [Ceftazidime, reference compound] | < 0.5 | 512 (≈ 937 µM) | 8 (≈ 14.6 µM) | 32 (≈ 58.5 µM) | 16 (≈ 29.3 µM) | 128 (≈ 234 µM) | < 0.5 | > 128 | > 128 | 1 (≈ 1.83 µM) | ≤ 0.125 | 128 (≈ 234 µM) |  |  |  |  |  |  | 

From publication PMC11191095, “QSAR Reveals Decreased Lipophilicity of Polar Residues Determines the Selectivity of Antimicrobial Peptide Activity” (ACS Omega, 2024)
